# “Also recorded” adds a separate entry of the source. Like-named read-outs stand apart in the source and are kept apart here.
# Columns and labels:
# Balb/C mice [1] = test: Cellular immune responses after HBsAg DNA vaccine (assay not specified); type: in vivo; conditions: as stated in Example 6
# Text: This experiment includes a plasmid that expresses HBsAg from the keratin 14 promoter. This was used to try and alter the expression of the antigen in different cell types and see if this affects the immune response. Mice were immunized twice.
# Balb/C mice [2] = test: ELISA for subclass of HBsAg specific antibody (IgG1/IgG2a); type: in vivo; conditions: Example 6; serum samples from different experiments; FIG. 15
# Balb/C mice [3] = test: Resiquimod adjuvant test: cellular immune responses (CD8 ELISPOT) after HBsAg DNA vaccine; type: in vivo; conditions: Example 16, topical
# Procedure: Resiquimod is delivered topically to the abdominal skin of Balb/c mice on either day −2, −1, 0, 1, 2 or 3 relative to immunization on day 0. Immunization utilizes a DNA vaccine that expresses the Hepatitis B surface antigen so that cellular and antibody responses found after treatment with Resiquimod can be evaluated and compared to a wealth of historical data. The formulation consists of either a 0.05% cream, or a DMSO solution (approximately 5 mg/ml). Ideally both types of formula are tested. One half of the mice are sacrificed 7 days after immunization to measure cellular immune responses (CD8 ELISPOT). The remaining mice are bled 28 days after immunization, boosted with the same schedule as the priming immunization and then sacrificed 2 weeks later to test for antibody and cellular responses. Serum is used to test for antibody titer and to evaluation subclass distribution of IgG antibodies indicating the bias of the immune response.
# For immunization DNA vaccine plasmids with a well-known immune response are employed. Plasmid WRG7128 is a likely choice which expresses the Hepatitis B surface antigen (HBsAg) using the HCMV promoter/enhancer and generates a cellular and antibody response.
# Resiquimod is formulated as either a 0.05% cream, or a 5 mg/ml solution in DMSO. To apply the cream, it is rubbed onto the abdomens of mice using a cotton swab. […]
# Balb/C mice [4] = type: in vivo; conditions: Example 7; first experiment, prime only
# Balb/C mice [5] = test: Anti-sAg and anti-cAg antibody ELISAs after PMID with HBV sAg/cAg plasmid; type: in vivo; conditions: Example 7
# Balb/C mice [6] = test: IFN-g ELISPOT of spleen cells after HBsAg DNA vaccine; conditions: Example 2; prime and boost
# Balb/C mice [7] = type: in vivo; conditions: for g-IFN secretion: first experiment
# Procedure: Two further experiments were performed to assess the efficacy of imiquimod (Aldara cream) as an adjuvant for particle-mediated immunization with DNA (PMD). Both experiments used a plasmid expressing HBV sAg and cAg as a test vaccine. […] Readouts included antibody titers and cytokine ELISPOTs to the two antigens.
# Groups of 5-10 Balb/c mice were vaccinated on the shaved abdomen with one shot each on day 0 (prime only) or days 0 and 28 (prime and boost). PMID was administered using an ND5.5 device with a payload of 1 mg Au and a 35 bar cylinder. […] In experiment one, a small, unmnetered amount of Aldara was delivered at the indicated times using a cotton swab to rub the cream in. […] The control cream was an over the counter hand cream which contained many of the same ingredients as the Aldara base cream.
# Mice were bled retro-orbitally at 4 weeks for prime/boost groups. Blood was collected by intracardiac puncture, and spleens were removed for cellular assays at sacrifice at either week 2 (prime only) or week 6 (boost+2 weeks). Sera were analyzed for anti-sAg and anti-cAg antibodies using in-house ELISAs. Spleen cells from individual mice were stimulated with protein or peptide for g-IFN and IL-4 ELISPOT assays. Three sets of antigen were used: 1) intact cAg from Biodesign; 2) a library of overlapping sAg peptides (15 mers offset by 3 amino acids synthesized by Chiron); and 3) an immunodominant peptide from sAg (amino acids 28-39) known to bind the MHC class I molecule Ld. Specific spot-forming cells were calculated by subtracting the number of spots generated with cells cultured in medium alone.
# Balb/C mice [8] = test: Serum antibody ELISA (HBsAg) after HBsAg DNA vaccine; type: in vivo; conditions: Example 2; prime and boost, HBsAg plasmid with HCMV promoter; FIG. 3
# Procedure: (§1) For immunization with the Hepatitis B surface antigen (HBsAg) a plasmid containing the HCMV promoter/enhancer was used to drive expression of the HBsAg. For one experiment we also employed a plasmid in which the keratin 14 promoter was used instead of the HCMV promoter. This promoter is expected to have a more restricted pattern of expression and be expressed only in the skin unlike the HCMV promoter that is expressed in many cell types.
# (§2) The cream is a 5% solution.
# Serum samples were assayed for antibodies using an BLISA assay. Falcon Pro Bind microtiter plates were coated overnight at 4° C. with antigen in PBS (phosphate buffered saline, BioWhittaker). For HBsAg BLISA the antigen was purified HBsAg (BioDesign) at 0.1 ug per well, and for HSV ELISAs the antigen was 5 ug per well of an infected cell extract (Advanced Biotechnolgies Incorporated). […]
# Plates were washed 3× and a biotinylated goat anti-mouse antibody (Southern Biotechnology) diluted 1:8000 in dilution buffer was added to the plate and incubated for 1 hr at RT. […] Optical density was read at 450 nm. Endpoint titers for HBsAg were calculated by comparison of the samples with a standard of known titer.
# Balb/C mice [9] = test: CD8 IFN-g ELISA of spleen cells after HBsAg DNA vaccine; type: in vivo; conditions: Example 2; prime and boost
# Text: as §1, §2
# Mice were immunized with a DNA vaccine containing a HBsAg expressing plasmid using either a high dose (1 ug) or low dose (50 ng) of vaccine. […] One group was also treated for three days (day 0, 1 and 2). […] Results shown in FIG. 1 are from the CD8 IFN-g ELISA. […] The values are the means from 4 individual mice.
smiles,measurement,setting,value
CCCCC[C@H](O)/C=C/[C@H]1[C@H](O)CC(=O)[C@@H]1C/C=C\CCCC(=O)O [PGE2],cellular responses,Balb/C mice [1],can enhance cellular responses
same,ratio of IgG1/IgG2a of HBsAg specific antibody,Balb/C mice [2],does not have the same effect overall
"CCOCc1nc2c(N)nc3ccccc3c2n1CC(C)(C)O [Resiquimod, 4-amino-2-ethoxymethyl-alpha,alpha-dimethyl-1H-imidazo [4,5-c]quinoline-1-ethanol]",cellular immune response,Balb/C mice [3],boost in the cellular immune response
same,immune responses to the DNA vaccines,Balb/C mice [3]; before or after immunization,enhances immune responses
"CC(C)Cn1cnc2c(N)nc3ccccc3c21 [imiquimod, 1-(2-methyl-propyl)-1H-imidazo[4,5-c]quinolin-4-amine]",IL-4 ELISPOTs / IL-4 secretion,Balb/C mice [4],little effect; also recorded: no effect
same,antibody titers / antibody responses to HBV sAg and cAg,Balb/C mice [5],little effect; also recorded: did not enhance antibody responses
same,cellular response (ELISPOTs),Balb/C mice [6],enhanced the responses
same,g-IFN ELISPOT response to class I-restricted peptide (CD8+ cells),"Balb/C mice [7]; Example 7, first experiment, compared with sAg peptide library response",comaparable responses were seen
same,optimal time point for augmenting g-IFN-secreting cells,"Balb/C mice [7]; Example 7, time after PMID",about a day and upto 7 days after PMID
same,g-IFN secretion,"Balb/C mice [7]; highest dose of DNA, delivered right before or right after",slightly inhibitory
same,g-IFN secretion,"Balb/C mice [7]; highest dose of DNA, given 24 hours after",augments PMID
same,g-IFN secretion,"Balb/C mice [7]; low doses of DNA, administration 24 hours post PMID",most effective
same,g-IFN secretion,"Balb/C mice [7]; low doses of HBV-encoding DNA, all three time points",enhances g-IFN secretion
same,antibody levels,Balb/C mice [8],strong reduction in antibody levels
same,cellular response (IFN-g ELISA),Balb/C mice [9],enhanced the responses
